These results are taken from patent publication US6127337A, “Bivalent thrombin inhibitors” (National Research Council of Canada, priority 1993, dated 2000).

As a reminder, the Ki is the dissociation constant of the complex between target and ligand, obtained from inhibition or displacement.

For test [1], the target named is T1, human thrombin (Homo sapiens, UniProt P00734).
T1 construct: Human α-thrombin (3,000 NIH units/mg); purchased Sigma
Put plainly: Inhibition of amidolytic activity of human thrombin (fluorogenic, Tos-Gly-Pro-Arg-AMC), Ki. The format is biochemical. On the procedure:
Materials. The chromogenic and fluorogenic substrates Tosyl-Gly-Pro-Arg-pNAand Tos-Gly-Pro-Arg-AMC were purchased from Boehringer Manheim and Sigma, respectively. […] Initial velocities were recorded at several inhibitor concentrations and kinetic parameters were determined by fitting the data to a general equation describing enzyme inhibition (Segel, 1975). The data were analyzed using the non-linear regression program RNLIN in the IMSL library (IMSL, 1987) on a microVAX™ 3500 computer. […] Fluorogenic assays were conducted using the same conditions and instrument as above operating in the fluorescence mode in the ratio (λex =383 nm, λem =455 nm) Fluorescence intensities were calibrated with 7-amino-4-methyl coumarin solution of known concentration
Determination of Thrombin Inhibitory Dissociation Constants KI
The steady-state velocity was then measured for a few minutes. The compounds of this invention were also pre-incubated with thrombin for 20 min at room temperature before adding the substrate. […] The kinetic data (the steady-state velocity at various concentrations of the substrate and the inhibitors) of the competitive inhibition was analyzed using the methods described by Segel (1975). A non-linear regression program, RNLIN in the IMSL library (IMSL, 1987), LMDER in MINPACK library (More et al., 1980) or Microsoft™ Excell™, was used to estimate the kinetic parameters (Km Vmax and Ki). The biological data are reported on tables I-V.

Test [2] has as its system carotid injury-induced thrombosis. Kind of test: FeCl3 induced arterial injury model (carotid injury-induced thrombosis). To be noted: rat; for Dose to double occlusion time: control occlusion time 19 ± 1 min; for Dose to achieve patency at 60 min.: patency defined by no drop in vessel temperature. The format is in vivo. Here is the method:
[…]: Rat, male, Sprague-Dawley. Weight: 375-450 g The FeCl3 induced arterial injury model assays were conducted according to Kurz, K. D., Main, […]., Thrombosis research 60; 269-280, 1990 and Schumacher, W. A. et al. J. pharmacology and experimental therapeutics 267; 1237-1242, 1993. Male, Sprague-Dawley (375-450 g) are anesthetized with Urethane (1500 mg/kg IP). Animals are laid on a heating pad which is maintained at 37° C. The carotid artery is approached through a midline cervical incision. Carefully blunt dissection is used to expose and isolate the vessel from the carotid sheath. Using forceps, the artery is lifted to provide clearance to insert two small polyethylene tubing (PE-205) underneath it. The temperature probe (Physitemp MT23/3 )TM is placed between the PE-205 and the artery. The vessel temperature is monitored for 60 minutes after application of FeCl3. Vessel temperature changes are recorded on a thermister (Cole-Palmer Model 08533-41). Injury is induced by application of a small disc (3 mm dia.) of WhatmanTM No.1 filter paper previously dipped in a 35% solution of FeCl3 on the carotid artery above the temperature probe. The site of the experiment is covered with in Aluminum foil in order to protect the FeCl3 from degradation by light. […] Before the start of the experiment, one blood sample is drawn (1 ml) in a tube of 0.105M buffered citrate solution (from the eye's sinus) and the animal is exsanguinated at the end. All the samples are kept on ice and centrifuged as soon as possible at 2000 Rpm for 10 min., 4° C. The plasma is analyzed in duplicate for activated partial thromboplastin time on a haemostasis analyzer (STAGO ST4TM). From a group of four animals, two arteries are stored at -80C for further analysis.

Setting [3] is: Table II, various active site inhibitor segments, human thrombin 3.0×10^-11 M, read-out: Ki.
The mark [4] stands for this setting: FIG. 1 Dixon plot, human α-thrombin 0.033 NIH unit/mL, pH 7.8, 25° C., read-out: Ki.
[5] abbreviates: Table IV, no assay number given, read-out: Ki.
The mark [6] stands for this setting: Table III, various linker segments, human thrombin 3.0×10^-11 M, read-out: Ki.
Where [7] appears, read: Table IV, results from assay no. 1, read-out: Ki.
Setting [8] is: Table IV, results from assay no. 2, read-out: Ki.

Like-named read-outs stand apart in the source and are kept apart here. A value given as a limit tells only on which side of the number the result lay.

As for “(D-β-cyclohexylalanine)-Arg-(D-Pipecolic acid)-(12-aminododecanoic acid)-4-aminobutyric acid)-Asp-Phe-Glu-Glu-Ile-Pro-Glu-Glu-Tyr-Leu-Gln-OH [Peptide P481]”, in test [1] (setting [3]), the inhibition constant Ki was 9.51 ± 0.16 nM.

As for “dansyl-Arg-(D)1-amino cyclohexane carboxylic acid-(12-aminododecanoic acid)-4-aminobutyric acid)-Asp-Phe-Glu-Glu-Ile-Pro-Glu-Glu-Tyr-Leu-Gln-OH [Peptide P473]”, the Ki in test [1] (setting [3]) worked out at 36.3 ± 10.3 nM.

On to “dansyl-Arg-1,2,3,4-tetrahydroisoquinoline-3-carboxylic acid-(12-aminododecanoic acid)-4-aminobutyric acid)-Asp-Phe-Glu-Glu-Ile-Pro-Glu-Glu-Tyr-Leu-Gln-OH (RXXXDFEEIPEEYLQ; dansyl-Arg-Tic-aminododecanoic-aminobutyric N-terminal extension) [Peptide P471]”, for which the Ki in test [1] (setting [3]) was 0.285 ± 0.04 nM.

Take “dansyl-Arg-(L-pipecolic acid)-(12-aminododecanoic acid)-4-aminobutyric acid)-Asp-Phe-Glu-Glu-Ile-Pro-Glu-Glu-Tyr-Leu-Gln-OH [Peptide P447]”: the inhibition constant Ki in test [1] (setting [3]) was 12.4 ± 1.8 nM.

For the molecule “(D-Phe)-Arg-(D-Pipecolic acid)(12-aminododecanoic acid)-4-aminobutyric acid)-Asp-Phe-Glu-Glu-Ile-Pro-Glu-Glu-Tyr-Leu-Gln-OH [Peptide P483]”, the Ki in test [1] (setting [3]) is 54.9 ± 6.6 nM.

In the case of “dansyl-Arg-(D-pipecolic acid)-(12-aminododecanoic acid)-4-aminobutyric acid)-Asp-Phe-Glu-Glu-Ile-Pro-Glu-Glu-Tyr-Leu-Gln-OH [Peptide P448]”, the inhibition constant (Ki) in test [1] (setting [4]) was found to be 0.017 ± 0.0042 nM. Further, in test [2], the “Dose to double occlusion time” value is listed as 1.0 mg/kg i.v. bolus and the “Dose to achieve patency at 60 min.” value is > 2 mg/kg i.v. bolus.

As for “dansyl-Nle-(D-Pipecolic acid)-(12-aminododecanoic acid)-4-aminobutyric acid)-Asp-Phe-Glu-Glu-Ile-Pro-Glu-Glu-Tyr-Leu-Gln-OH [Peptide P493]”, the Ki in test [1] (setting [3]) is 5.2 ± 1.31 nM.

Regarding “4-tert-butylbenzenesulfonyl-Arg-(D-pipecolic acid)-(12-aminododecanoic acid)-4-aminobutyric acid)-Asp-Tyr-Glu-Pro-Ile-Pro-Glu-Glu-Ala-(L-β-cyclohexylalanine)-(D- Glu)-OH [Peptide P553]”, the inhibitory constant (Ki) in test [1] (setting [5]) was 0.003 ± 0.0004 nM. Also, in test [2], the “Dose to double occlusion time” value stood at 0.25 mg/kg i.v. bolus and the “Dose to achieve patency at 60 min.” value is 0.5-1 mg/kg i.v. bolus.

On to `CC[C@H](C)[C@H](NC(=O)[C@H](CCC(=O)O)NC(=O)[C@H](CCC(=O)O)NC(=O)[C@H](Cc1ccccc1)NC(=O)[C@H](CC(=O)O)NC(=O)CCCCNC(=O)CNC(=O)CNC(=O)CCNC(=O)[C@H]1CCCCN1C(=O)[C@H](CCCNC(=N)N)NS(=O)(=O)c1cccc2c(N(C)C)cccc12)C(=O)N1CCC[C@H]1C(=O)N[C@@H](CCC(=O)O)C(=O)N[C@@H](CCC(=O)O)C(=O)N[C@@H](Cc1ccc(O)cc1)C(=O)N[C@@H](CC(C)C)C(=O)N[C@@H](CCC(N)=O)C(=O)O` [Peptide P498], for which the Ki in test [1] (setting [4]) was 0.131 ± 0.022 nM; in test [1] (read-out: Ki value) it was < 1 nM.

On to “dansyl-(D-Arg)-(D-Pipecolic acid)-(12-aminododecanoic acid)-4-aminobutyric acid)-Asp-Phe-Glu-Glu-Ile-Pro-Glu-Glu-Tyr-Leu-Gln-OH [Peptide P492]”, for which, in test [1] (setting [3]), the Ki was 1.02 ± 0.38 nM.

Turning to “dansyl-Arg-(L-Pip)-(4-aminobutyric acid-glycyl)-Asp-Phe-Glu-Glu-Ile-Pro-Glu-Glu-Tyr-Leu-Gln-OH [Peptide P409]”, the Ki entry in test [1] (Table III, various linker segments, human thrombin 3.0×10^-11 M) was “no inhibition”.

For the molecule “benzyl sulfonyl-Arg-(D-Pipecolic acid)-(12-aminododecanoic acid)-4-aminobutyric acid)-Asp-Phe-Glu-Glu-Ile-Pro-Glu-Glu-Tyr-Leu-Gln-OH [Peptide P556]”, the Ki in test [1] (setting [3]) is 0.137 ± 0.026 nM; in test [1] (read-out: Ki value) it was < 1 nM.

For the molecule “dansyl-Arg-(D-Pipecolic acid)-(8-aminocaproicacid)-4-aminobutyric acid)-Asp-Phe-Glu-Glu-Ile-Pro-Glu-Glu-Tyr-Leu-Gln-OH [Peptide P528]”, the inhibitory constant (Ki) in test [1] (setting [6]) was 0.521 ± 0.086 nM; in test [1] (read-out: Ki value), < 1 nM.

Turning to “4-tert-Butyl-benzene sulfonyl-Arg-(D-Pipecolic acid)-(12-aminododecanoic acid)-4-aminobutyric acid)-Asp-Phe-Glu-Glu-Ile-Pro-Glu-Glu-Tyr-Leu-Gln-OH [Peptide P552]”, in test [2], the “Dose to double occlusion time” value was found to be 0.5 mg/kg i.v. bolus and the “Dose to achieve patency at 60 min.” value is given as ≥ 2 mg/kg i.v. bolus.

Turning to “dansyl-Arg-(D-pipecolic acid)-(12-aminododecanoic acid)-4-aminobutyric acid)-Asp-Tyr-Glu-Pro-Ile-Pro-Glu-Glu-Ala-(L-β-cyclohexylalanine)-(D- Glu)-OH [Peptide P535]”, the Ki in test [1] (setting [7]) turned out to be 0.00123 ± 0.00026 nM; in test [1] (setting [8]) it was 0.002 ± 0.0004 nM.

As to “β-naphthyl sulfonyl-arginyl D-pipecolic acid-(12-aminododecanoic acid)-4-aminobutyric acid)-Asp-Tyr-Glu-Pro-Ile-Pro-Glu-Glu-Ala-(L-β-cyclohexylalanine)-(D- Glu)-OH [Peptide P551]”, the inhibitory constant (Ki) in test [1] (setting [7]) was 0.0033 ± 0.00016 nM. Moreover, in test [1] (setting [8]), the inhibition constant (Ki) is 0.0042 ± 0.0002 nM. Besides, in test [2], the “Dose to double occlusion time” value is on record as 0.5-1 mg/kg i.v. bolus and the “Dose to achieve patency at 60 min.” value is 1-2 mg/kg i.v. bolus.

With “dansyl-Arg-(D-Pipecolic acid)-(7-aminoheptanoic acid)-glycyl)-Asp-Phe-Glu-Glu-Ile-Pro-Glu-Glu-Tyr-Leu-Gln-OH (RXXGDFEEIPEEYLQ; dansyl, D-pipecolic acid, aminoheptanoic acid-glycyl linker) [Peptide P524]”, the Ki in test [1] (setting [6]) turned out to be 1480 ± 170 nM.

Turning to “α-naphthyl sulfonyl-arginyl D-pipecolic acid-(12-aminododecanoic acid)-4-aminobutyric acid)-Asp-Tyr-Glu-Pro-Ile-Pro-Glu-Glu-Ala-(L-β-cyclohexylalanine)-(D- Glu)-OH [Peptide P581]”, the inhibition constant (Ki) in test [1] (setting [5]) was 0.0145 ± 0.0009 nM. In test [2], the “Dose to double occlusion time” value was 0.5 mg/kg i.v. bolus and the “Dose to achieve patency at 60 min.” value was found to be 1 mg/kg i.v. bolus.

On to “fmoc-Arg-(D-Pipecolic acid)(12-aminododecanoic acid)-4-aminobutyric acid)-Asp-Phe-Glu-Glu-Ile-Pro-Glu-Glu-Tyr-Leu-Gln-OH [Peptide P484]”, for which, in test [1] (setting [3]), the Ki turned out to be 14.8 ± 1.2 nM.

As to “dansyl-Arg-(D-Pipecolic acid)-(4-aminobutyric acid)-glycyl)-Asp-Phe-Glu-Glu-Ile-Pro-Glu-Glu-Tyr-Leu-Gln-OH [Peptide P514]”, the Ki in test [1] (setting [6]) was determined as 6800 ± 1640 nM.

With “dansyl-Phe-(D-Pipecolic acid)-(12-aminododecanoic acid)-4-aminobutyric acid)-Asp-Phe-Glu-Glu-Ile-Pro-Glu-Glu-Tyr-Leu-Gln-OH [Peptide P476]”, the inhibition constant (Ki) in test [1] (setting [3]) was 2.62 ± 0.2 nM.

Turning to “dansyl-Cha-(D-Pipecolic acid)-(12-aminododecanoic acid)-4-aminobutyric acid)-Asp-Phe-Glu-Glu-Ile-Pro-Glu-Glu-Tyr-Leu-Gln-OH [Peptide P477]”, in test [1] (setting [3]), the inhibition constant Ki was 5.85 ± 0.098 nM.

For the molecule “dansyl-Arg-(D-β-cyclohexylalanine)-(12-aminododecanoic acid)-4-aminobutyric acid)-Asp-Phe-Glu-Glu-Ile-Pro-Glu-Glu-Tyr-Leu-Gln-OH [Peptide P472]”, the Ki in test [1] (setting [3]) worked out at 17.1 ± 3.1 nM.
